Data reported in US20140308733A1, “METHOD FOR INDUCING GERMINATION OF SPORE FORMING BACTERIUM” (CALPIS CO., LTD., priority 2011, published 2014).

Experiments:
Type in all cases: cell-based
[1] = system: Bacillus licheniformis (NBRC 12200); assay: Germination induction, change of turbidity (630 nm) of spore suspension; conditions: 300 ppm; for turbidity (630 nm): 37° C., 150 rpm
Method: (§1) It is possible to determine whether spores have germinated, after measuring an OD 630 value (turbidity at 630 nm) of the liquid culture, based on decrease in the value (Literature: Microbiology, (1950), 4, 3, 330-338). Briefly, bacterial cells after culturing are washed with distilled water and diluted with distilled water to OD 630=1.0, which is then mixed with an equal volume of a germination induction solution, and the turbidity at 630 nm is measured by a UV spectrophotometer at room temperature.
(§2) TS culture media (Difco, Trypticase Soy Broth) were inoculated respectively with 11 strains listed in Table 1 and cultured at 50° C. with respect to Geobacillus stearothermophilus NBRC13737 and Aeribacillus pallidus TK6004 (FERM BP-08597), and at 37° C. with respect to the other 9 strains, until respective colonies were established. Then with respect to each of 11 strains, a loop full of a single colony was scratched by a platinum loop and suspended in 500 μL of sterilized water. In 1000 g of water was dissolved 8.0 g of a nutrient agar culture medium (Difco, Nutrient Broth), followed by high pressure steam sterilization (121° C., 15 min) to prepare a plate medium. The nutrient agar culture medium was smeared with each 100 μL of the suspension and cultured at 37° C. for 3 days.
(§3) Then, bacterial cells were suspended using a platinum loop in 500 μL of sterilized water, and the bacterial suspension was subjected to a heat shock at 65° C. for 35 min. Each 100 μL of the heat-shocked bacterial suspension and a not-heat-shocked bacterial suspension were smeared on the TS culture media respectively and cultured at 50° C. or 37° C. for 1 day.
(§4) After confirming the spore formation, the bacterial cells were collected by a bacteria spreader, suspended in 10 mL of sterilized distilled water, and then centrifuged (8340×g, 4° C., 15 min). The supernatant was removed and thereafter the bacterial cells were washed twice with 10 mL of sterilized water. After washing, the bacterial cells were suspended in 5 mL of sterilized water, and the suspension was filtrated by sterilized Kimwipes. The filtrate was centrifuged (8340×g, 4° C., 15 min) to remove the supernatant, and the rest was adjusted to the turbidity (at 630 nm) of 1.0 with sterilized water.
(§5) After dissolving with stirring using a stirring rod with a propeller, filtration sterilization (0.45 μm filter) was conducted to prepare each 600 ppm-solution.
(§6) Five hundred (500) μL of each solution and 500 μL of each bacterial spore suspension were mixed. […] Defining the time point of mixing as the reaction initiation (0 min), and continuing shaking (150 rpm) at 37° C., the turbidity (630 nm) was measured at 10, 20, 30, 40, 50, 60, 90, 120, and 180 min after the reaction initiation.
(§7) Since the turbidity at 630 nm decreases by germination of spores, it has been known that the turbidity at 630 nm can be used to determine the germination rate.

[2] = system: Bacillus licheniformis (NBRC 14206); assay: as above; conditions: 300 ppm; for turbidity (630 nm): 37° C., 150 rpm
Method: as §1, §2, §3, §4, §5, §6, §7

[3] = system: Bacillus subtilis C-3102 (FERM BP-1096); assay: Influence of the concentration of germination inducer on turbidity change (Example 2); conditions: for turbidity (630 nm): 37° C., 150 rpm
Method: Next, 500 μL aliquots of bacterial suspension of Bacillus subtilis C-3102 (FERM BP-1096) used in Example 1 were mixed with 500 μL of ferulic acid, or vanillic acid solutions described above, and the mixtures were adjusted to ferulic acid (10 to 600 ppm), or vanillic acid (10 to 1800 ppm) concentrations set forth in Table 2. The concentrations of ferulic acid at the reaction initiation were 10, 100, 300, and 600 ppm, and the concentrations of vanillic acid at the reaction initiation were 10, 100, 300, 600, 1200, and 1800 ppm.
As same as Example 1, defining the time point of mixing the bacterial suspension with the solution of ferulic acid, or vanillic acid as the reaction initiation (0 min), and continuing shaking (150 rpm) at 37° C., the absorbance (630 nm) was measured at 10, 20, 30, 40, 50, 60, 90, 120, and 180 min after the reaction initiation.

[4] = 0 min after reaction initiation
[5] = 10 min after reaction initiation
[6] = 20 min after reaction initiation
[7] = 30 min after reaction initiation
[8] = 40 min after reaction initiation
[9] = 50 min after reaction initiation
[10] = 60 min after reaction initiation
[11] = 90 min after reaction initiation
[12] = 120 min after reaction initiation
[13] = 180 min after reaction initiation

COc1cc(C(=O)O)ccc1O [Vanillic acid, vanillic acid]
turbidity (630 nm) [1, 4]: 0.602
turbidity (630 nm) [1, 5]: 0.574
turbidity (630 nm) [1, 6]: 0.567
turbidity (630 nm) [1, 7]: 0.542
turbidity (630 nm) [1, 8]: 0.523
turbidity (630 nm) [1, 9]: 0.488
turbidity (630 nm) [1, 10]: 0.464
turbidity (630 nm) [1, 11]: 0.414
turbidity (630 nm) [1, 12]: 0.362
turbidity (630 nm) [1, 13]: 0.267
germination confirmed by turbidity decrease ([1]; up to 180 min): the turbidity decreased
turbidity (630 nm) [2, 4]: 0.583
turbidity (630 nm) [2, 5]: 0.573
turbidity (630 nm) [2, 6]: 0.563
turbidity (630 nm) [2, 7]: 0.553
turbidity (630 nm) [2, 8]: 0.537
turbidity (630 nm) [2, 9]: 0.526
turbidity (630 nm) [2, 10]: 0.503
turbidity (630 nm) [2, 11]: 0.470
turbidity (630 nm) [2, 12]: 0.453
turbidity (630 nm) [2, 13]: 0.414
germination confirmed by turbidity decrease ([2]; up to 180 min): the turbidity decreased
turbidity (630 nm) ([3]; vanillic acid 10 ppm, 0 min after reaction initiation): 0.590
turbidity (630 nm) ([3]; vanillic acid 10 ppm, 10 min after reaction initiation): 0.558
turbidity (630 nm) ([3]; vanillic acid 10 ppm, 20 min after reaction initiation): 0.548
turbidity (630 nm) ([3]; vanillic acid 10 ppm, 30 min after reaction initiation): 0.539
turbidity (630 nm) ([3]; vanillic acid 10 ppm, 40 min after reaction initiation): 0.527
turbidity (630 nm) ([3]; vanillic acid 10 ppm, 50 min after reaction initiation): 0.514
turbidity (630 nm) ([3]; vanillic acid 10 ppm, 60 min after reaction initiation): 0.497
turbidity (630 nm) ([3]; vanillic acid 10 ppm, 90 min after reaction initiation): 0.472
turbidity (630 nm) ([3]; vanillic acid 10 ppm, 120 min after reaction initiation): 0.437
turbidity (630 nm) ([3]; vanillic acid 10 ppm, 180 min after reaction initiation): 0.338
turbidity (630 nm) ([3]; vanillic acid 100 ppm, 0 min after reaction initiation): 0.584
turbidity (630 nm) ([3]; vanillic acid 100 ppm, 10 min after reaction initiation): 0.557
turbidity (630 nm) ([3]; vanillic acid 100 ppm, 20 min after reaction initiation): 0.553
turbidity (630 nm) ([3]; vanillic acid 100 ppm, 30 min after reaction initiation): 0.537
turbidity (630 nm) ([3]; vanillic acid 100 ppm, 40 min after reaction initiation): 0.526
turbidity (630 nm) ([3]; vanillic acid 100 ppm, 50 min after reaction initiation): 0.501
turbidity (630 nm) ([3]; vanillic acid 100 ppm, 60 min after reaction initiation): 0.491
turbidity (630 nm) ([3]; vanillic acid 100 ppm, 90 min after reaction initiation): 0.470
turbidity (630 nm) ([3]; vanillic acid 100 ppm, 120 min after reaction initiation): 0.433
turbidity (630 nm) ([3]; vanillic acid 100 ppm, 180 min after reaction initiation): 0.315
turbidity (630 nm) ([3]; vanillic acid 300 ppm, 0 min after reaction initiation): 0.572
turbidity (630 nm) ([3]; vanillic acid 300 ppm, 10 min after reaction initiation): 0.555
turbidity (630 nm) ([3]; vanillic acid 300 ppm, 20 min after reaction initiation): 0.543
turbidity (630 nm) ([3]; vanillic acid 300 ppm, 30 min after reaction initiation): 0.538
turbidity (630 nm) ([3]; vanillic acid 300 ppm, 40 min after reaction initiation): 0.526
turbidity (630 nm) ([3]; vanillic acid 300 ppm, 50 min after reaction initiation): 0.507
turbidity (630 nm) ([3]; vanillic acid 300 ppm, 60 min after reaction initiation): 0.501
turbidity (630 nm) ([3]; vanillic acid 300 ppm, 90 min after reaction initiation): 0.452
turbidity (630 nm) ([3]; vanillic acid 300 ppm, 120 min after reaction initiation): 0.381
turbidity (630 nm) ([3]; vanillic acid 300 ppm, 180 min after reaction initiation): 0.235
turbidity (630 nm) ([3]; vanillic acid 600 ppm, 0 min after reaction initiation): 0.566
turbidity (630 nm) ([3]; vanillic acid 600 ppm, 10 min after reaction initiation): 0.568
turbidity (630 nm) ([3]; vanillic acid 600 ppm, 20 min after reaction initiation): 0.561
turbidity (630 nm) ([3]; vanillic acid 600 ppm, 30 min after reaction initiation): 0.540
turbidity (630 nm) ([3]; vanillic acid 600 ppm, 40 min after reaction initiation): 0.512
turbidity (630 nm) ([3]; vanillic acid 600 ppm, 50 min after reaction initiation): 0.499
turbidity (630 nm) ([3]; vanillic acid 600 ppm, 60 min after reaction initiation): 0.488
turbidity (630 nm) ([3]; vanillic acid 600 ppm, 90 min after reaction initiation): 0.447
turbidity (630 nm) ([3]; vanillic acid 600 ppm, 120 min after reaction initiation): 0.390
turbidity (630 nm) ([3]; vanillic acid 600 ppm, 180 min after reaction initiation): 0.262
turbidity (630 nm) ([3]; vanillic acid 1200 ppm, 0 min after reaction initiation): 0.567
turbidity (630 nm) ([3]; vanillic acid 1200 ppm, 10 min after reaction initiation): 0.559
turbidity (630 nm) ([3]; vanillic acid 1200 ppm, 20 min after reaction initiation): 0.551
turbidity (630 nm) ([3]; vanillic acid 1200 ppm, 30 min after reaction initiation): 0.548
turbidity (630 nm) ([3]; vanillic acid 1200 ppm, 40 min after reaction initiation): 0.520
turbidity (630 nm) ([3]; vanillic acid 1200 ppm, 50 min after reaction initiation): 0.509
turbidity (630 nm) ([3]; vanillic acid 1200 ppm, 60 min after reaction initiation): 0.496
turbidity (630 nm) ([3]; vanillic acid 1200 ppm, 90 min after reaction initiation): 0.474
turbidity (630 nm) ([3]; vanillic acid 1200 ppm, 120 min after reaction initiation): 0.456
turbidity (630 nm) ([3]; vanillic acid 1200 ppm, 180 min after reaction initiation): 0.419
turbidity (630 nm) ([3]; vanillic acid 1800 ppm, 0 min after reaction initiation): 0.579
turbidity (630 nm) ([3]; vanillic acid 1800 ppm, 10 min after reaction initiation): 0.562
turbidity (630 nm) ([3]; vanillic acid 1800 ppm, 20 min after reaction initiation): 0.549
turbidity (630 nm) ([3]; vanillic acid 1800 ppm, 30 min after reaction initiation): 0.538
turbidity (630 nm) ([3]; vanillic acid 1800 ppm, 40 min after reaction initiation): 0.519
turbidity (630 nm) ([3]; vanillic acid 1800 ppm, 50 min after reaction initiation): 0.510
turbidity (630 nm) ([3]; vanillic acid 1800 ppm, 60 min after reaction initiation): 0.498
turbidity (630 nm) ([3]; vanillic acid 1800 ppm, 90 min after reaction initiation): 0.472
turbidity (630 nm) ([3]; vanillic acid 1800 ppm, 120 min after reaction initiation): 0.453
turbidity (630 nm) ([3]; vanillic acid 1800 ppm, 180 min after reaction initiation): 0.420
germination induction versus concentration ([3]; vanillic acid of 10 to 1800 ppm): germination was inducted at any concentration to the same extent
